Experimental data taken from ChEMBL document CHEMBL1201862, “PubChem BioAssay data set” (2004).
Active and inactive are the calls of the source.

What was measured:
[1] = target: FAD-linked sulfhydryl oxidase ALR (Homo sapiens, UniProt P55789); experiment: inhibitors of human ALR sulfhydryl oxidase, dose response, biochemical, H2O2 detection, luminescence, cherry-pick (AID 493248)
[2] = target: T1, Replicative DNA helicase DnaB (Mycobacterium tuberculosis, UniProt P9WMR3); experiment: DnaB intein splicing inhibitors, dose response, biochemical, cell-free fluorescence (AID 449749); type: functional
T1 sequence (P9WMR3 whole entry): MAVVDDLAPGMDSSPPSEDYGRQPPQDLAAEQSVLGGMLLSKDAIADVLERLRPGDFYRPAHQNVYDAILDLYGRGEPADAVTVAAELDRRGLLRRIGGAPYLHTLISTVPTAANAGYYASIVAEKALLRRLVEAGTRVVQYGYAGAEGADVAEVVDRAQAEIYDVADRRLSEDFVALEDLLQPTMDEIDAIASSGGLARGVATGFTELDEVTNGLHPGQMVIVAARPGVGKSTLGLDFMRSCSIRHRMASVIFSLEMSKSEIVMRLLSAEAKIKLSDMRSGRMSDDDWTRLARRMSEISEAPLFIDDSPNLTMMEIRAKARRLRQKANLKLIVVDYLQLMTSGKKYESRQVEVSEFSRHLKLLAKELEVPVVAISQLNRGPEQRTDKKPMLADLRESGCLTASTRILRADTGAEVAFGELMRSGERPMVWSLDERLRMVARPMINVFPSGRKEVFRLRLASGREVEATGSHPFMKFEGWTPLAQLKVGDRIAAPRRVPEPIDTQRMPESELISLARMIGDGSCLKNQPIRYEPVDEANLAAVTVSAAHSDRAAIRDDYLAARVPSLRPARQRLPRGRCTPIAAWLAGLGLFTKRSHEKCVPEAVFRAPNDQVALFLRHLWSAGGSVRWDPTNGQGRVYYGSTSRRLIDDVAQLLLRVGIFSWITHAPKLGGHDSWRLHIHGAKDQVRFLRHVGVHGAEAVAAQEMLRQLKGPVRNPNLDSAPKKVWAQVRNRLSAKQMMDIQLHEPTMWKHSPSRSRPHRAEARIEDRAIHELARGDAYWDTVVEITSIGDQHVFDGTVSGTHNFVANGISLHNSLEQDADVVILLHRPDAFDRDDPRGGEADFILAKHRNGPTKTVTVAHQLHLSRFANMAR

[3] = target: T2, High affinity choline transporter 1 (Homo sapiens, UniProt Q9GZV3); experiment: CHT inhibitors, dose response, cell-based, 5-point CRC, membrane potential dye (AID 504840); type: functional
T2 sequence (Q9GZV3 whole entry): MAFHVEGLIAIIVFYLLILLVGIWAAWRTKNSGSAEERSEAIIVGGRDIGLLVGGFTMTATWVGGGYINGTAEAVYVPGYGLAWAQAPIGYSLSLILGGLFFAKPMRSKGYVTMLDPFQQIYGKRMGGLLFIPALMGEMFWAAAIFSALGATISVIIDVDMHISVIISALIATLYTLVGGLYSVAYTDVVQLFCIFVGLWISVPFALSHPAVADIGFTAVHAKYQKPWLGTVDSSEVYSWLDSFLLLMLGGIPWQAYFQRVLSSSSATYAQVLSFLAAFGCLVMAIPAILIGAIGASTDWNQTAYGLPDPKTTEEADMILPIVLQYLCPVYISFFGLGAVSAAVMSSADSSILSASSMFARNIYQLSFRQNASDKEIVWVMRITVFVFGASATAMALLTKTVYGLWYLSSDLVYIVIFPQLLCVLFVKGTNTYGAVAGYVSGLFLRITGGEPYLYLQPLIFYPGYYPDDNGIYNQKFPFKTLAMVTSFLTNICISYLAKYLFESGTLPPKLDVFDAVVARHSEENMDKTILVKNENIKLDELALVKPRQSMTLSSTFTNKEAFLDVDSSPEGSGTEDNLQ

Protein RecA = target: T3, Protein RecA (Mycobacterium tuberculosis, UniProt P9WHJ3); experiment: Fluorescence Cell-Free Homogeneous Dose Retest to Identify Inhibitors of RecA-Intein Splicing Activity. [Related pubchem assays (depositor defined):AID2097, AID2223, AID489010, AID492950]; type: functional
T3 sequence (P9WHJ3 whole entry): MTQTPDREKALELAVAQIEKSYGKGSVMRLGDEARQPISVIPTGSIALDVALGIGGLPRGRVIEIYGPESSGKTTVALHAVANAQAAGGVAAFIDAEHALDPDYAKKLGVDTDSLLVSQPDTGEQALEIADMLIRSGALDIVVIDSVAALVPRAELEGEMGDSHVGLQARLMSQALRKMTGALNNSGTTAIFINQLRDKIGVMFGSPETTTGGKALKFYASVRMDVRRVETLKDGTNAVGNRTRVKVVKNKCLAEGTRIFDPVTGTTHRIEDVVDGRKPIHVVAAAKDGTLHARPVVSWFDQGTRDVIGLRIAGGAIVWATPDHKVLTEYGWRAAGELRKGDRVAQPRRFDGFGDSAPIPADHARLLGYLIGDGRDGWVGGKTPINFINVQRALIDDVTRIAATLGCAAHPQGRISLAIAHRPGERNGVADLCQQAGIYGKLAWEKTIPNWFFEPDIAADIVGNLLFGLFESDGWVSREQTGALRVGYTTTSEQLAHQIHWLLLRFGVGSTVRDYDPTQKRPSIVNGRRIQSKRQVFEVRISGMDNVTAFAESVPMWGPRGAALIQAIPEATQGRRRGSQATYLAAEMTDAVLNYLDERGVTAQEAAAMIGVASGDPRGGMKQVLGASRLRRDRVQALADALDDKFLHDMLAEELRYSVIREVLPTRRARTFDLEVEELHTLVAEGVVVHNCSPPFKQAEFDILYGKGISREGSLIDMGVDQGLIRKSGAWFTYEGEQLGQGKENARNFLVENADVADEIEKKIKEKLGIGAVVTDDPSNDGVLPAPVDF

[4] = target: T4, RNA-binding protein pos-1 (Caenorhabditis elegans, UniProt G5EF15); experiment: inhibitors of POS-1/mex-3 RNA binding, dose response, biochemical, fluorescence polarization (AID 1964);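 note: purified POS-1 fused to maltose binding protein made in E. coli; potency of compounds blocking POS-1 binding to fluorescent RNA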
T4 sequence (G5EF15 whole entry): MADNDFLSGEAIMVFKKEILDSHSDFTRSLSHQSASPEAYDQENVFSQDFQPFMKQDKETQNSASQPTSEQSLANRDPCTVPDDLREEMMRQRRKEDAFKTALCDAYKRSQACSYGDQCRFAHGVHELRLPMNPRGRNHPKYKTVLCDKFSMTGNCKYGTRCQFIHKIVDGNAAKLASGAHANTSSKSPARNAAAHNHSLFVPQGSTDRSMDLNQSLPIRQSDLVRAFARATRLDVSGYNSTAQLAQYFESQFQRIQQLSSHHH

[5] = target: T5, Zinc finger protein mex-5 (Caenorhabditis elegans, UniProt Q9XUB2); experiment: MEX-5/TCR-2 RNA interaction inhibitors, dose response, biochemical, C. elegans, fluorescence polarization (AID 1960)
T5 sequence (Q9XUB2 whole entry): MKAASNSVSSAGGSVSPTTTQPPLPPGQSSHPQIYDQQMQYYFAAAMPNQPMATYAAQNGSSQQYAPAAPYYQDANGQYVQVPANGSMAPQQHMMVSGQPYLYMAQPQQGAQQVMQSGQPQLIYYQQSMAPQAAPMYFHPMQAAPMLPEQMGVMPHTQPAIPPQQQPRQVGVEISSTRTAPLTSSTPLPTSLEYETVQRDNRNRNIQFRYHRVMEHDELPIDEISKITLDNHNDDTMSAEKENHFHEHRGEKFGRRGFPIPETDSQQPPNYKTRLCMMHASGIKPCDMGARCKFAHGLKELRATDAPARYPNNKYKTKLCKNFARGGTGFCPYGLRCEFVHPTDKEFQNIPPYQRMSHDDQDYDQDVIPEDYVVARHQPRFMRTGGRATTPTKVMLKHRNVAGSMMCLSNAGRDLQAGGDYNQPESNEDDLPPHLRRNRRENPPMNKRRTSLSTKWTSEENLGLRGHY

[6] = target: T6, Polyadenylate-binding protein 1 (Homo sapiens, UniProt P11940); experiment: PABP1 MLLE–PAM2 binding inhibitor potency, dose response, biochemical, fluorescence polarization, FITC-PAM2 peptide (AID 602259); type: functional; conditions: read-out: IC50_Mean
T6 sequence (P11940 whole entry): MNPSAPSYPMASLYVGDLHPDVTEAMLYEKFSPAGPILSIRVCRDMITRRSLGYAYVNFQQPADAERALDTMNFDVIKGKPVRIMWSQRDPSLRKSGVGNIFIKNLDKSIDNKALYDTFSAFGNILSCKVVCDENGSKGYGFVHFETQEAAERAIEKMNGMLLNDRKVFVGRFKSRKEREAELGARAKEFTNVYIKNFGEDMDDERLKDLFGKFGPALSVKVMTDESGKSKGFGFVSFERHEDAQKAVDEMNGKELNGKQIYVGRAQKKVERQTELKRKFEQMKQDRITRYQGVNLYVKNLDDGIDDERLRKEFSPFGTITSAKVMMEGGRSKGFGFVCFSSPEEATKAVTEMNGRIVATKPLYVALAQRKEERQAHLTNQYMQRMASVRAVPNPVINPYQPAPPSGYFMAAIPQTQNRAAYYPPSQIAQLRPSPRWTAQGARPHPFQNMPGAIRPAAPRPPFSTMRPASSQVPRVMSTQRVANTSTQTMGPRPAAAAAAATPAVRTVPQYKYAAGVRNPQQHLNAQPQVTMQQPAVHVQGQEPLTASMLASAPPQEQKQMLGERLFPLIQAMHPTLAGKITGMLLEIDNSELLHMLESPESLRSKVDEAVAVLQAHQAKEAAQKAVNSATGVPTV

[7] = target: T6, Polyadenylate-binding protein 1; experiment: PABP1 MLLE–PAM2 interaction inhibitors, dose response, miRNA deadenylation inhibitor project, biochemical, fluorescence polarization, Cy5-PAM2 peptide, secondary (AID 602260); type: functional; conditions: read-out: IC50_Mean
BJ [8] = experiment: cells; type: functional, cell-based; conditions: Homo sapiens
BJ [9] = experiment: cytotoxicity toward BJ-TERT-LT-ST fibroblasts, dose response, cell-based, RAS-independent, luminescence (AID 1935); type: functional; conditions: Homo sapiens;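 note: BJ fibroblasts immortalized with TERT plus LT and ST oncogenes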
[10] = cytotoxicity toward DRD oncogenic fibroblasts, dose response, cell-based, non-viral oncogenic, luminescence (AID 1934); type: functional; conditions: Homo sapiens
INS1 = experiment: beta cell apoptosis inhibitors, cytokine rescue, dose response, luminescence, retest (AID 449756); type: functional, cell-based; conditions: Rattus norvegicus;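 note: cell death triggered by IL-1 beta plus TNF-alpha plus IFN-gamma mixture; protective hits raise ATP signal compared with cytokine alone wells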
BJ [11] = experiment: cytotoxicity toward BJ-TERT fibroblasts, dose response, cell-based, RAS-independent, luminescence (AID 1933); type: functional; conditions: Homo sapiens
[12] = HepG2 cell cytotoxicity, dose response, cytotoxicity control for Shn3 inhibitor project, CellTiter-Glo, cherry-picked (AID 624134); type: functional, cell-based
[13] = inhibitors of clade B AD8 Env fusion, dose response, cell-based, cherry-pick (AID 652062); type: functional;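 note: luciferase signal from cell-cell fusion driven by HIV-1 clade B AD8 Env; potency is for inhibitors of fusion seen as a drop in luminescence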
[14] = control 3'UTR Renilla luciferase suppression, dose response, counter-screen for Shn3 inhibitor project, cell-based, Clone20-Shn3RL, cherry-picked (AID 624133); type: functional
[15] = ZM109 Env clade C HIV-1 fusion inhibitors, dose response, HeLa effector, CEM target cells, luciferase, cherry-pick (AID 652058); type: functional, cell-based
[16] = Shn3 3'UTR reporter inhibitors, dose response, cell-based, Clone20 osteoblasts, firefly luciferase, cherry-picked (AID 624132); type: functional;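 note: firefly luciferase luminescence from reporter carrying the Shn3 3'UTR in osteoblasts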
[17] = inhibitors of HIV Env-driven cell fusion, dose response, cherry-pick (AID 652057); type: functional, cell-based
[18] = C. albicans growth with fluconazole, confirmation, fluorescence, retest (AID 2467); type: functional, cell-based
[19] = NIH-3T3 fibroblast cytotoxicity, dose response, cytotoxicity control, cell-based, fluorescence, Alamar Blue, secondary assay (AID 2327); type: functional;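 note: NIH-3T3 mouse fibroblasts cultured with fluconazole at 8 µg/mL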

FAD-linked sulfhydryl oxidase ALR, sequence (P55789 whole entry): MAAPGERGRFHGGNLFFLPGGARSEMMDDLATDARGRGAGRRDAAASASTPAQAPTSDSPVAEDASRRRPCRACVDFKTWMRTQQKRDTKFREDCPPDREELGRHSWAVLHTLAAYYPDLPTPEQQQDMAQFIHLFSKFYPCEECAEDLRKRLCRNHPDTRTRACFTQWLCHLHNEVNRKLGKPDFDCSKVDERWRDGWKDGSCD

Cc1nnc(Sc2nc3ccccc3o2)c2ccccc12
AC50 [1]: 3.26 µM (active) | AC50 [2]: 18.4 µM (active) | IC50 [3]: 13.5 µM (active) | EC50 (Protein RecA): 1.28 µM (active)

CCCN(CC(=O)Nc1ccc(F)c(F)c1F)C(=O)Cn1c(=O)cnc2ccccc21
IC50 [3]: 12.3 µM (active)

COC(=O)c1cccc(-n2c(CCC(=O)O)ccc2-c2cccs2)c1
EC50 [4]: > 300 µM (not active) | EC50 [5]: > 300 µM (not active)

COc1ccc(Cc2c(O)nc(SCC(=O)NC34CC5CC(CC(C5)C3)C4)nc2O)cc1
IC50 [6]: > 66 µM (inactive) | IC50 [7]: > 66 µM (inactive)

C/C(=N\NC(=O)c1nnn(-c2nonc2N)c1-c1cccs1)c1cccc(O)c1
EC50 [4]: > 300 µM (not active) | EC50 [5]: > 300 µM (not active)

Cn1c(=O)c2nc(COc3ccccc3)[nH]c2n(C)c1=O
IC50 [6]: 29.7 µM (inactive) | IC50 [7]: 33.5 µM (inactive)

N#CC(C#N)=C(Nc1ccc(F)cc1)SCc1cccc(F)c1
EC50 (BJ [8]): 33.2 µM (active) | EC50 (BJ [9]): > 150 µM (inconclusive) | EC50 [10]: 29.3 µM (active) | IC50 [3]: 4.79 µM (active) | AC50 (INS1): 3.26 µM (active) | EC50 (BJ [11]): 13.1 µM (active)

N#CC1=C(N)OC2=C(C(=O)CCC2)C1c1ccc(OC(=O)N2CCOCC2)cc1 (stereo not drawn)
EC50 [4]: > 300 µM (not active) | EC50 [5]: > 300 µM (not active)

COc1ccccc1OCC(=O)c1[nH]c(C)c(C(C)=O)c1C
AC50 [12]: > 70 µM (inactive) | AC50 [13]: 46.4 µM (active) | AC50 [14]: 3.81 µM (active) | AC50 [15]: 2.13 µM (active) | AC50 [16]: 3.35 µM (active)

CC(C)(C)c1ccc(/C=C2\Oc3cc(O)ccc3C2=O)cc1
EC50 [4]: 31.4 µM (active) | EC50 [5]: 28.8 µM (active)

O=C1CC(c2ccccc2)CC(=O)C1Sc1ccc(Cl)cc1 (stereo not drawn)
IC50 [6]: > 66 µM (inactive) | IC50 [7]: > 66 µM (inactive)

Cc1nnc(NC(=O)C2c3ccccc3Oc3ccccc32)s1
IC50 [6]: > 66 µM (inactive) | IC50 [7]: > 66 µM (inactive)

NS(=O)(=O)c1cccc2c1c([N+](=O)[O-])cc1nc(O)c(O)nc12
IC50 [6]: > 66 µM (inactive) | IC50 [7]: > 66 µM (inactive)

O=C1NC(=O)N(CCc2ccc(F)cc2)C(=O)/C1=C/NCCCn1ccnc1
EC50 [4]: > 300 µM (not active) | EC50 [5]: > 300 µM (not active)

Cc1cccn2c(=O)c3cc(C#N)/c(=N\C(=O)c4cccs4)n(CCCOC(C)C)c3nc12
EC50 [4]: 141 µM (inconclusive) | EC50 [5]: > 300 µM (not active)

COc1cc2[nH]c(=S)n(NC(=O)c3ccccc3)c(=O)c2cc1OC
IC50 [6]: > 66 µM (inactive) | IC50 [7]: > 66 µM (inactive)

Cc1ccc(C(N)=S)c(C)c1
IC50 [6]: > 66 µM (inactive) | IC50 [7]: > 66 µM (inactive)

CO[C@@H](CN(C)S(=O)(=O)c1ccc(Cl)cc1)[C@@H](C)CN([C@H](C)CO)S(=O)(=O)c1cccc(Cl)c1
AC50 [13]: 19.5 µM (active) | AC50 [15]: 1.1 µM (active) | AC50 [17]: 1.25 µM (active)

O=S(=O)(NCc1csc(-c2cccs2)n1)c1cccc(C(F)(F)F)c1
IC50 [3]: 14.5 µM (active)

c1csc(CNc2ncnc3sccc23)c1
EC50 [18]: 3.28 µM (active) | AC50 [12]: 4.61 µM (active) | AC50 [13]: 8.87 µM (active) | AC50 [14]: 4.77 µM (active) | AC50 [15]: 46.1 µM (active) | AC50 [16]: 1.8 µM (active) | EC50 [19]: > 160 µM (inconclusive) | AC50 [17]: 39.4 µM (active)

FC(F)(F)c1ccc2c(c1)C1C=CCC1C(c1ccncc1)N2 (stereo not drawn)
EC50 [4]: > 300 µM (not active) | EC50 [5]: > 300 µM (not active)

O=C(Cn1ncc2c3ccccc3n(Cc3ccccc3)c2c1=O)NCCCN1CCCC1
IC50 [3]: 13.2 µM (active)

Cc1ccccc1NC(=O)c1ccc(F)c(S(=O)(=O)NCC2CCCO2)c1 (stereo not drawn)
IC50 [3]: 12.3 µM (active)
